# Test results taken from patent US11414384B2, “P300/CBP hat inhibitors” (Constellation Pharmaceuticals, Inc., priority 2018, dated 2022).
# How the values were obtained:
# [1] = biological target: full length p300 (Homo sapiens (Human), UniProt Q09472); experiment: full length p300 SPA assay; type: biochemical; settings: average of at least 2 replicate titrations, read-out: FL P300 IC50
# Protocol: Reactions were initiated with 12.5 μL 2 μM biotinylated H3(1-21) peptide (New England Peptide) and run for 1 hr at RT, then quenched with 20 μL stop solution (200 mM Tris pH 8.0, 200 mM EDTA, 2M NaCl, 160 μM anacardic acid). 35 μL of the reaction volume was transferred to a 384-well streptavidin FlashPlate (PerkinElmer) using a Bravo liquid handler (Velocity 11) and incubated for 1.5 hr at RT. Plates were aspirated, washed with 95 μL wash buffer (15 mM Tris pH 8.5, 0.069 μM Brij-35), aspirated, sealed, and scintillation counts read on a Topcount (PerkinElmer). Data were analyzed in Genedata to determine inhibitor IC50 values.
# The full length p300 SPA assay was run following the same protocol as p300 HAT SPA assay, but used 6 nM purified full length p300 (purchased from Active Motif) in place of the purified p300-HAT domain.
# [2] = biological target: p300 HAT domain (residues 1287-1666) (Homo sapiens (Human), UniProt Q09472); experiment: p300 HAT SPA assay (scintillation proximity assay, acetylation of biotinylated H3(1-21) peptide); type: biochemical; settings: p300 HAT domain; average of at least 2 replicate titrations; read-out: P300 HAT SPA IC50
# p300 HAT domain (residues 1287-1666), sequence (Q09472 1287-1666): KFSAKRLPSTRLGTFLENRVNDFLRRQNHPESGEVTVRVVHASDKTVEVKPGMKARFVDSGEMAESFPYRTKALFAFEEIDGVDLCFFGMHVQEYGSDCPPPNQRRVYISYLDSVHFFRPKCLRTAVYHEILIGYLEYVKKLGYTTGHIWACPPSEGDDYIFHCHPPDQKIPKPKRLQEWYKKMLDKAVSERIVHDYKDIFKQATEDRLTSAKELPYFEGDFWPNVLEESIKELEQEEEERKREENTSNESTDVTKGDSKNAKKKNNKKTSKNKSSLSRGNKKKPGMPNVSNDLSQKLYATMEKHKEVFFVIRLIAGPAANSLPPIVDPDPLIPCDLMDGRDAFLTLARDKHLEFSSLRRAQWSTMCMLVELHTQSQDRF
# Procedure, shortened: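 Purified p300 HAT domain reaction transferred to streptavidin plates to capture biotinylated H3(1-21) peptide, incubated 1.5 hr at RT, and read by scintillation proximity. IC50 values derived from concentration-response data.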
# [3] = system: acetylation of chromatin at H3K18 (catalyzed by p300 and CBP) in HCT-116 cells; experiment: H3K18Ac MSD cellular assay; type: cell-based; settings: 2 hr treatment, average of at least 2 replicate titrations
# Protocol: Select compounds were also evaluated in a H3K18Ac MSD cellular assay that measures the ability of compounds to inhibit the acetylation of chromatin at H3K18, a process catalyzed by p300 and CBP. In a typical experiment the p300 HAT inhibitory activity inside cells of the compounds described herein was determined in accordance with the following experimental method. 20 k HCT-116 cells per well are plated in 75 μL RPMI+10% FBS media the night before treatment. Compounds plated in DMSO at 4× final concentration are resuspended in 30 μL RPMI+10% FBS, then 25 μL is combined with corresponding wells containing cells. Treated cells are incubated for 2 hr at 37° C., then lysed in 500 μL final volume and frozen at −80° C. MSD plates (Meso Scale Discovery) are coated overnight at 4° C. with 60 μL 1:500α-total histone antibody (Millipore MAB3422) in PBS. Plates are then blocked with 5% BSA in TBST shaking at RT for 1 hr, washed, and 30 μL lysate added to each well for 2 hr shaking at RT. Plates are washed and 25 μL 1:216α-H3K18ac antibody (CST 9675) in PBS added, then incubated for 1 hr shaking at RT. Plates are washed again, then 25 μL 1:1000 Sulfo-Tag goat a-rabbit antibody (Meso Scale Discovery R32Ab-1) in PBS is added for 1 hr shaking at RT. Plates are washed once more, then 150 μL 1× Read Buffer (MSD #R92TD-3) is added to all wells and read on MSD SECTOR Imager 2400 using the conventional read setup.
# full length p300, sequence (Q09472 whole entry): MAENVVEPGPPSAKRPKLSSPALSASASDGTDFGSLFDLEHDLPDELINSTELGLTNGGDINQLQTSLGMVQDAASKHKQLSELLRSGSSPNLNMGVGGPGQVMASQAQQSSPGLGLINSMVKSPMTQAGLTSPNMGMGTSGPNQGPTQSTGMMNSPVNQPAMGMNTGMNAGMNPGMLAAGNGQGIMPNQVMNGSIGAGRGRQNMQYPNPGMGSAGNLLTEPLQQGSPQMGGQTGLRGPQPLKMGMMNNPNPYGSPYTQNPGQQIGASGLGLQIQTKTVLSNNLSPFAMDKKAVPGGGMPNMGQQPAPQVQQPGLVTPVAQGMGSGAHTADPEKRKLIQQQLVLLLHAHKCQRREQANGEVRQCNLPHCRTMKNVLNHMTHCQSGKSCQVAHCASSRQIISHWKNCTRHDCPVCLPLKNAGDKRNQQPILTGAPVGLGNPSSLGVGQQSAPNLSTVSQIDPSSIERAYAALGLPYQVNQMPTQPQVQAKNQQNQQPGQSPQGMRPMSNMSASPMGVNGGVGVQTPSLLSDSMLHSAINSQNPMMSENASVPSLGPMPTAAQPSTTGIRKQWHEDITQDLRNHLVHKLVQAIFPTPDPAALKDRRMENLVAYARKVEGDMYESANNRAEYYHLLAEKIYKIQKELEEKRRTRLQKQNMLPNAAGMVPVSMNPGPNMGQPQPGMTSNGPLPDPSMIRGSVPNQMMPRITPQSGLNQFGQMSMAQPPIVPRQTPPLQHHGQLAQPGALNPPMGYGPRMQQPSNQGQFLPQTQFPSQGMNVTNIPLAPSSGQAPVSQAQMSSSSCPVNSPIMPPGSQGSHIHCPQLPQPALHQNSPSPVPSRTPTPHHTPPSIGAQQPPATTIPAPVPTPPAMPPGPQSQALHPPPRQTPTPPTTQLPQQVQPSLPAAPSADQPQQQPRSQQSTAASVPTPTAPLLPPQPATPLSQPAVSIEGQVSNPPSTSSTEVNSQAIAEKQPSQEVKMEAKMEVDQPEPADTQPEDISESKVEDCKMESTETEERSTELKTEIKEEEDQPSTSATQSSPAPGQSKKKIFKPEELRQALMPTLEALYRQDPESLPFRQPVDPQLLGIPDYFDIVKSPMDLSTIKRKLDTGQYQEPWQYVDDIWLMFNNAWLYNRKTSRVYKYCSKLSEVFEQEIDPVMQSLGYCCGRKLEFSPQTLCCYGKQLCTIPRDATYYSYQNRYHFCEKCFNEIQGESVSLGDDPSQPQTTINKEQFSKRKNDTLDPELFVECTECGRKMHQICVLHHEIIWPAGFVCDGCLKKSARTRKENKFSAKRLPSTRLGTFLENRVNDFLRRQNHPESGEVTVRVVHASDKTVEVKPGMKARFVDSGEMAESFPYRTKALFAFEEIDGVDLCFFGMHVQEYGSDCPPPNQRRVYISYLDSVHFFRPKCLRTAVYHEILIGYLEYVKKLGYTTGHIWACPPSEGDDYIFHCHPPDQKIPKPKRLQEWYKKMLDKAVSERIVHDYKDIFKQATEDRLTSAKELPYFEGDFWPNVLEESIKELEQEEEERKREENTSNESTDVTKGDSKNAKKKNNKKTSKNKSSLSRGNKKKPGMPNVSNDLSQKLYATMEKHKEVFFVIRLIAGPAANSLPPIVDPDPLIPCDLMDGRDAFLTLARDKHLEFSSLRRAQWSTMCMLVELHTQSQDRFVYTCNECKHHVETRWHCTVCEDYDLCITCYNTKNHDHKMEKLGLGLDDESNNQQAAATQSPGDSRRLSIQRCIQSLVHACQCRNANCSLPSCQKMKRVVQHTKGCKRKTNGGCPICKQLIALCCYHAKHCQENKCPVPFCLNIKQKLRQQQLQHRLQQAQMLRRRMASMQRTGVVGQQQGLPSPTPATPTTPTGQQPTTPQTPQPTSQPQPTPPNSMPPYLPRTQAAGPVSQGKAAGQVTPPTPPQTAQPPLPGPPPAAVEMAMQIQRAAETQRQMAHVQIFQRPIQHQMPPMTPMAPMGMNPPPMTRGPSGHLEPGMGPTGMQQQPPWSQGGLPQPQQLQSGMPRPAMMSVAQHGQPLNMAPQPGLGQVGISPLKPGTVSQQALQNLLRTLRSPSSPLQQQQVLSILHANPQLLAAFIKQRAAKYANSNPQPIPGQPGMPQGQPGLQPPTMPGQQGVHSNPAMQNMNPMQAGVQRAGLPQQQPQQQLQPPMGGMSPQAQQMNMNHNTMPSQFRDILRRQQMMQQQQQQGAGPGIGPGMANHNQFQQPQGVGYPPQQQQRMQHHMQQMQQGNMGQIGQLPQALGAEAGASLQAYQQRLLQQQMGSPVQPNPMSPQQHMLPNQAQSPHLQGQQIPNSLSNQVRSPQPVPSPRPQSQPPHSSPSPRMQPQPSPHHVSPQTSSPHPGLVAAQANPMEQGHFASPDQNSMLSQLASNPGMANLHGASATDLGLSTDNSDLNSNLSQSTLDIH
Structure (SMILES),IC50 [1] [nM],IC50 [2] [nM],"EC50 ([3]; Homo sapiens, HCT-116, 2 h) [nM]",EC50 [3] [nM]
"NS(=O)(=O)c1ccc(CCNC(C(=O)c2c[nH]c3cccc(Cl)c23)c2ccccc2)cc1 (single isomer, unassigned) [12 Isomer 1]",8500,> 60000,,
"NS(=O)(=O)c1ccc(CCNC(C(=O)c2c[nH]c3cccc(Cl)c23)c2ccccc2)cc1 (single isomer, unassigned) [12 Isomer 2]",3940,> 60000,,
"Cc1[nH]c2ccccc2c1C(=O)C(NCCc1ccc(S(N)(=O)=O)cc1)c1ccccc1 (single isomer, unassigned) [16 Isomer 2]",378,6980,,
"CNC(=O)c1ccc(CCN[C@H](C(=O)c2c[nH]c3cc(-c4cnn(C)c4)ccc23)c2ccccc2)cc1 (single isomer, unassigned) [131 Isomer 2]",,1290,101,
"Cn1cc(-c2ccc3c(C(=O)C(NCCc4ccc(C(N)=O)cc4)c4ccccc4)c[nH]c3c2)cn1 (single isomer, unassigned) [139 Isomer 2]",,511,53.4,
"Cn1cc(-c2ccc3c(C(=O)C(NCCc4ccc(C(=O)O)cc4Cl)c4ccccc4)c[nH]c3c2)cn1 (single isomer, unassigned) [142 Isomer 2]",,81.6,1200,
"COc1cccc2c(C(=O)[C@@H](NCCc3ccc(S(N)(=O)=O)cc3)c3ccccc3)c[nH]c12 (single isomer, unassigned) [144 Isomer 2]",,1410,1380,
"CCNC(=O)c1ccc2c(C(=O)[C@@H](NCCc3ccc(C#N)cc3)c3ccccc3)c[nH]c2c1 (single isomer, unassigned) [146 Isomer 1]",,786,,401
"CNC(=O)c1ccc2c(C(=O)C(NCCc3ccc(Cl)cc3Cl)c3ccccc3)c[nH]c2c1 (single isomer, unassigned) [151 Isomer 2]",,101,53.5,
"N#Cc1ccc(CCNC(C(=O)c2c[nH]c3cc(C(=O)NCC(F)(F)F)ccc23)c2ccccc2)cc1 (single isomer, unassigned) [157 Isomer 2]",,66,36.4,
"CNC(=O)CCc1ccc2c(C(=O)C(NCCc3ccc(F)cc3)c3ccccc3)c[nH]c2c1 (single isomer, unassigned) [158 Isomer 1]",,1500,641,
"CC(C)(O)CNC(=O)c1ccc2c(C(=O)C(NCCc3ccc(C#N)cc3)c3ccccc3)c[nH]c2c1 (single isomer, unassigned) [161 Isomer 2]",,95.1,78.1,
"CCN1CC(NC(=O)c2ccc3c(C(=O)C(NCCc4ccc(C#N)cc4)c4ccccc4)c[nH]c3c2)C1 (single isomer, unassigned) [163 Isomer 2]",,41.9,> 1000,
"N#Cc1ccc(CCNC(C(=O)c2c[nH]c3cc(C(=O)NC4CS(=O)(=O)C4)ccc23)c2ccccc2)cc1 (single isomer, unassigned) [166 Isomer 2]",,28.8,112,
"N#Cc1ccc(CCNC(C(=O)c2c[nH]c3cc(C(=O)NC4COC4)ccc23)c2ccccc2)cc1 (single isomer, unassigned) [174 Isomer 1]",,965,,> 1000
"N#Cc1ccc(CCNC(C(=O)c2c[nH]c3cc(C(=O)NC4COC4)ccc23)c2ccccc2)cc1 (single isomer, unassigned) [174 Isomer 2]",,39,,98.3
"CS(=O)(=O)CCCNC(=O)c1ccc2c(C(=O)C(NCCc3ccc(C#N)cc3)c3ccccc3)c[nH]c2c1 (single isomer, unassigned) [175 Isomer 2]",,44,184,
"Cn1cnc(-c2ccc3c(C(=O)[C@@H](NCCc4ccc(C(N)=O)cc4)c4ccccc4)c[nH]c3c2)c1 (single isomer, unassigned) [177 Isomer 2]",,838,1270,
"Cn1cc(-c2ccc3c(C(=O)C(NCCc4ccc(C(N)=O)cc4)c4ccccc4)cnn3c2)cn1 (single isomer, unassigned) [179 Isomer 1]",,302,192,
"Cn1cc(-c2ccc3c(C(=O)C(NCCc4ccc(C(N)=O)cc4)c4ccccc4)c[nH]c3c2)nn1 (single isomer, unassigned) [180 Isomer 2]",,370,219,

# The remaining lines, values ahead:
IC50 [1] [nM],IC50 [2] [nM],"EC50 ([3]; Homo sapiens, HCT-116, 2 h) [nM]",EC50 [3] [nM],Structure (SMILES)
196,9140,,,"O=C(c1c[nH]c2ccccc12)C(NCCc1ccc(Cl)cc1)c1ccccn1 (racemic) [42 Racemic, (rac)-2-((4-chlorophenethyl)amino)-1-(1H-indol-3-yl)-2-(pyridin-2-yl)ethan-1-one]"
120,3330,,,"O=C(c1c[nH]c2ccccc12)C(NCCc1ccc(Cl)cc1)c1ccncc1 (racemic) [44 Racemic, (rac)-2-((4-chlorophenethyl)amino)-1-(1H-indol-3-yl)-2-(pyridin-4-yl)ethan-1-one]"
732,32300,,,"NS(=O)(=O)c1ccc(CCNC(C(=O)c2c[nH]c3cccnc23)c2ccccc2)cc1 (racemic) [Example 30, (rac)-4-(2-((2-oxo-1-phenyl-2-(1H-pyrrolo[3,2-b]pyridin-3-yl)ethyl)amino)ethyl) benzenesulfonamide]"
10600,33900,,,"NS(=O)(=O)c1ccc(CCNC(C(=O)c2c[nH]c3ccncc23)c2ccccc2)cc1 (racemic) [Example 31, (rac)-4-(2-((2-oxo-1-phenyl-2-(1H-pyrrolo[3,2-c]pyridin-3-yl)ethyl)amino)ethyl) benzenesulfonamide]"
82,1830,,,"COc1ccccc1CCNC(C(=O)c1c[nH]c2ccccc12)c1ccccc1 (single isomer, unassigned) [6 Isomer 2]"
269,5140,,,"COc1cccc(CCNC(C(=O)c2c[nH]c3ccccc23)c2ccccc2)c1 (single isomer, unassigned) [7 Isomer 2]"
27.7,873,,,"COc1ccc(CCNC(C(=O)c2c[nH]c3ccccc23)c2ccccc2)cc1 (single isomer, unassigned) [8 Isomer 2]"
25900,> 60000,,,"O=C(c1c[nH]c2ccccc12)C(NCCc1ccccn1)c1ccccc1 (single isomer, unassigned) [9 Isomer 1]"
728,33200,,,"O=C(c1c[nH]c2ccccc12)C(NCCc1ccccn1)c1ccccc1 (single isomer, unassigned) [9 Isomer 2]"
630,21200,,,"O=C(c1c[nH]c2ccccc12)C(NCCc1cccnc1)c1ccccc1 (single isomer, unassigned) [10 Isomer 1]"
711,19200,,,"O=C(c1c[nH]c2ccccc12)C(NCCc1cccnc1)c1ccccc1 (single isomer, unassigned) [10 Isomer 2]"
204,9940,,,"O=C(c1c[nH]c2ccccc12)C(NCCc1ccncc1)c1ccccc1 (single isomer, unassigned) [11 Isomer 1]"
197,7150,,,"O=C(c1c[nH]c2ccccc12)C(NCCc1ccncc1)c1ccccc1 (single isomer, unassigned) [11 Isomer 2]"
472,18100,,,"NS(=O)(=O)c1ccc(CCNC(C(=O)c2c[nH]c3cc(Cl)ccc23)c2ccccc2)cc1 (single isomer, unassigned) [13 Isomer 1]"
144,1620,,,"NS(=O)(=O)c1ccc(CCNC(C(=O)c2c[nH]c3cc(Cl)ccc23)c2ccccc2)cc1 (single isomer, unassigned) [13 Isomer 2]"
9540,> 60000,,,"NS(=O)(=O)c1ccc(CCNC(C(=O)c2c[nH]c3ccc(Cl)cc23)c2ccccc2)cc1 (single isomer, unassigned) [14 Isomer 1]"
1860,47400,,,"NS(=O)(=O)c1ccc(CCNC(C(=O)c2c[nH]c3ccc(Cl)cc23)c2ccccc2)cc1 (single isomer, unassigned) [14 Isomer 2]"
,642,243,,"NC(=O)c1ccc(CCNC(C(=O)c2c[nH]c3cc(-n4ccnc4)ccc23)c2ccccc2)cc1 (single isomer, unassigned) [181 Isomer 1]"
